Laboratory results taken from US20230009608A1, “GRK2 INHIBITORS AND USES THEREOF” (Cygnal Therapeutics, Inc., priority 2020, published 2023).
Values belong to the molecule of their own block, whether it stands above or below them.

Legend:
GRK2 [1] = biological target: T1, GRK2 (Homo sapiens, UniProt P25098); assay: GRK2 Inhibition Assay (TR-FRET, Example 7); format: biochemical
T1 construct: purchased SignalChem A14-10G
T1 sequence (P25098 1-689): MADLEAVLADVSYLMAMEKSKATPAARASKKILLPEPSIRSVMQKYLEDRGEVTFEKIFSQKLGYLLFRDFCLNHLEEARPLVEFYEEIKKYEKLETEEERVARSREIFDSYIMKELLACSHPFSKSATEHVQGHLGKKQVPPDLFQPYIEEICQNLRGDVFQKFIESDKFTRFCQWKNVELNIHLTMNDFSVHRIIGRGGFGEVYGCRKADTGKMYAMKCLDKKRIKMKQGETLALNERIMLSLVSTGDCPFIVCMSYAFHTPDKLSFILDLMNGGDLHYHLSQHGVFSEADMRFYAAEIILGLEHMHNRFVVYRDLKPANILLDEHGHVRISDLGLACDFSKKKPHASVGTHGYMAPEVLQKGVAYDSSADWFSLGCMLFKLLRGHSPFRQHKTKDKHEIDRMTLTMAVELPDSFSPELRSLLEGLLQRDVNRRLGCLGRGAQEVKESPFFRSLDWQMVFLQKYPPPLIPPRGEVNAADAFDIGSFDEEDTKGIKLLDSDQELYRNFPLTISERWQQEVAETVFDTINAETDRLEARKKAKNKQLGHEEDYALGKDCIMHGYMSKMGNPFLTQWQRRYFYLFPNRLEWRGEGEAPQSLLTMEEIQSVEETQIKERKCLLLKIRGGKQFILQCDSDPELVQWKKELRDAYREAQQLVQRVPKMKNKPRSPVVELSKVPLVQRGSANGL
In short: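 GRK2 at 1 nM preincubated 30 min with compound, then reacted 90 min at room temperature with 7 μM ATP and 50 nM ULight-TopoIIα in HEPES/MgCl2/DTT buffer. Phosphorylation detected by TR-FRET after Eu anti-TopoIIα and EDTA addition, 60 min.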

GRK2 [2] = biological target: T1, GRK2; assay: ADPGlo GRK2 Inhibition Assay (Example 8); format: biochemical
In short: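 GRK2 (15 nM 2× enzyme solution) was preincubated 15 min with compound, then reacted 180 min at room temperature with 2× mix of 20 μM ATP plus GRKtide in HEPES pH 7.5, MgCl2, Tween-20, DTT. ADP was detected by ADP-Glo luminescence. Percent inhibition was normalised to enzyme and no-enzyme controls, with dose-response curves from threefold dilutions starting at 100 μM.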

[3] = system: PAXF1657 control empty vector cell line; assay: 7-day proliferation assay, PAXF1657 control empty vector cell line (Example 9); format: cell-based; conditions: 168 h; Cell Line: PAXF1657 empty vector (EV) cell line; 7-day; read-out: C: 7-day proliferation assay: IC50 GeoMean
In short: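 Cells plated at 500 per well and attached overnight. Next, 10-point inhibitor series added (30 μM-0.0002 μM, 0.3% DMSO) and a day-0 viability plate read. Then, after 3 days, medium with fresh compound. Finally, viability after 4 more days via CellTiter-Glo.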

[4] = Enzyme Assay B, TR-FRET (Example 7), read-out: B: Enzymatic GRK2: IC50 (nM) (Example 7)
[5] = Enzyme Assay A, ADPGlo (Example 8), read-out: A: Enzymatic GRK2: IC50 (nM) (Example 8)
[6] = TR-FRET GRK2 enzyme assay, read-out: B: Enzymatic GRK2: IC50 (nM) (Example 7)
[7] = ADPGlo GRK2 enzyme assay, read-out: A: Enzymatic GRK2: IC50 (nM) (Example 8)

IC50 (GRK2 [1]; [4]): 24 nM
IC50 (GRK2 [2]; [5]): 7.3 nM
SMILES: Cn1c(CNc2cccc(C(=O)N[C@H]3c4ccccc4C[C@H]3O)c2)nnc1-c1ccncn1
IC50 [3]: 1410 nM

IC50 (GRK2 [1]; [4]): 3.2 nM
IC50 (GRK2 [2]; [5]): 0.96 nM
SMILES: Cn1c(CNc2cccc(C(=O)NCc3cnc4ccccn34)c2)nnc1-c1ccncn1
IC50 [3]: 1490 nM

IC50 (GRK2 [1]; [4]): 2.1 nM
IC50 (GRK2 [2]; [5]): 0.79 nM
SMILES: Cc1cccc2nnc(CNC(=O)c3cccc(NCc4nnc(-c5ccncn5)n4C)c3)n12
IC50 [3]: > 30000 nM

IC50 (GRK2 [1]; [4]): < 0.51 nM
SMILES: C[C@@H](NC(=O)c1cccc(NCc2nnc(-c3ccncn3)n2CCO)c1)c1ncccc1Cl
IC50 [3]: 803 nM

IC50 (GRK2 [1]; [4]): 0.88 nM
IC50 (GRK2 [2]; [5]): 4.89 nM
SMILES: C[C@H](NC(=O)c1cccc(NCc2nnc(-c3ccncn3)n2CCO)c1)c1ncccc1Cl
IC50 [3]: > 220 nM

IC50 (GRK2 [1]; [4]): 15 nM
SMILES: COCCCn1c(CNc2cccc(C(=O)NCc3cccnc3C(F)(F)F)c2)nnc1-c1ccncn1
IC50 [3]: 1200 nM

IC50 (GRK2 [1]; [4]): 39 nM
SMILES: COCCOc1cccc(CNC(=O)c2cccc(NCc3nnc(-c4ccncn4)n3C)c2)c1
IC50 [3]: 779 nM

IC50 (GRK2 [1]; [4]): 1000 nM
SMILES: O=C(NCc1cccnc1C(F)(F)F)c1cccc(NCc2nnc(-c3ccncn3)n2CCCN2CCC[C@H]2CO)c1
IC50 [3]: > 30000 nM

IC50 (GRK2 [1]; [4]): 7 nM
IC50 (GRK2 [2]; [5]): 1.3 nM
SMILES: Cn1c(CNc2cccc(C(=O)N[C@@H]3CCOc4cccnc43)c2)nnc1-c1ccncn1
IC50 [3]: 192 nM

IC50 (GRK2 [1]; [4]): 990 nM
IC50 (GRK2 [2]; [5]): 144 nM
SMILES: Cn1c(CNc2cccc(C(=O)N[C@H]3CCOc4cccnc43)c2)nnc1-c1ccncn1
IC50 [3]: > 10100 nM

IC50 (GRK2 [1]; [4]): 9.4 nM
IC50 (GRK2 [2]; [5]): 20.2 nM
SMILES: [2H]C([2H])(Nc1cccc(C(=O)NCc2ccncc2CC)c1)c1nnc(-c2ccncn2)n1C
IC50 [3]: > 30000 nM

IC50 (GRK2 [1]; [6]): 16 nM
IC50 (GRK2 [2]; [7]): 9.6 nM
SMILES: C[C@H](NC(=O)c1cccc(NCc2nnc(-c3ccncn3)n2C)c1)c1ncccc1Cl
IC50 [3]: 696 nM

IC50 (GRK2 [1]; [6]): 12.7 nM
IC50 (GRK2 [2]; [7]): 7.36 nM
SMILES: CNS(=O)(=O)c1cccc(F)c1CNC(=O)c1cccc(NCc2nnc(-c3ccncn3)n2C)c1
IC50 [3]: 732 nM

IC50 (GRK2 [1]; [6]): 5.5 nM
SMILES: Cn1c(CNc2cccc(C(=O)N[C@@H](C#N)c3ccccc3F)c2)nnc1-c1ccncn1
IC50 [3]: 59.3 nM

IC50 (GRK2 [1]; [6]): 6.8 nM
SMILES: Cn1c(CNc2cccc(C(=O)N[C@H](C#N)c3ccccc3F)c2)nnc1-c1ccncn1
IC50 [3]: 82.6 nM

IC50 (GRK2 [1]; [6]): 57 nM
IC50 (GRK2 [2]; [7]): 456 nM
SMILES: CCc1cnccc1CNC(=O)c1cccc(NCc2nnc(-c3ccncn3)n2[C@@H]2CCC[C@H](NC)C2)c1
IC50 [3]: > 4570 nM

IC50 (GRK2 [1]; [6]): 810 nM
IC50 (GRK2 [2]; [7]): 529 nM
SMILES: CCc1cnccc1CNC(=O)c1cccc(NCc2nnc(-c3ccncn3)n2[C@H]2CCC[C@H](NC)C2)c1

IC50 (GRK2 [1]; 1 nM GRK2, 7 μM ATP, TR-FRET, read-out: GRK2 IC50 (nM) (Example 7)): 5.8 nM
IC50 (GRK2 [2]; 7.5 nM GRK2, 10 μM ATP, ADP-Glo, read-out: GRK2 IC50 (nM) (Example 8)): 12 nM
SMILES: COc1ncccc1CNC(=O)c1cccc(NCc2nnc(-c3ccncc3)[nH]2)c1 [compound 9]

IC50 (GRK2 [1]; [4]): 5.8 nM
IC50 (GRK2 [2]; [5]): 12 nM
SMILES: COc1ncccc1CNC(=O)c1cccc(NCc2nnc(-c3ccncc3)[nH]2)c1 [drawing 424]
IC50 [3]: > 11000 nM

The remaining lines, values behind:

SMILES: Cn1c(CNc2cccc(C(=O)N[C@H]3CCOc4ccccc43)c2)nnc1-c1ccncc1F
IC50 (GRK2 [1]; [4]): 59 nM
IC50 (GRK2 [2]; [5]): 44.3 nM
IC50 [3]: 1490 nM

SMILES: Cc1cc2c(cc1CNC(=O)c1ccnc(NCc3nnc(-c4ccncn4)n3C)c1)OCCO2
IC50 (GRK2 [1]; [4]): 11.6 nM
IC50 (GRK2 [2]; [5]): 22.1 nM
IC50 [3]: > 330 nM

SMILES: Cn1c(CNc2cc(C(=O)N[C@H]3COc4ccccc43)ccn2)nnc1-c1ccncn1
IC50 (GRK2 [1]; [4]): 15.3 nM
IC50 (GRK2 [2]; [5]): 12.9 nM
IC50 [3]: 476 nM

SMILES: O=C(N[C@H]1CCOc2ccccc21)c1cccc(NCc2nnc(-c3ccncn3)n2CCO)c1
IC50 (GRK2 [1]; [4]): 2.5 nM
IC50 (GRK2 [2]; [5]): 4.1 nM
IC50 [3]: 104 nM

SMILES: Cc1cccc([C@H](CO)NC(=O)c2cccc(NCc3nnc(-c4ccncn4)n3CCO)c2)c1
IC50 (GRK2 [1]; [4]): < 0.8 nM
IC50 (GRK2 [2]; [5]): 2.32 nM
IC50 [3]: 50 nM

SMILES: Cc1cccc([C@@H](CO)NC(=O)c2cccc(NCc3nnc(-c4ccncn4)n3CCO)c2)c1
IC50 (GRK2 [1]; [4]): 1.1 nM
IC50 [3]: 1510 nM

SMILES: O=C(N[C@H]1COc2ccccc21)c1cccc(NCc2nnc(-c3ccncn3)n2CCO)c1
IC50 (GRK2 [1]; [4]): < 0.51 nM
IC50 [3]: 107 nM

SMILES: O=C(N[C@@H]1COc2ccccc21)c1cccc(NCc2nnc(-c3ccncn3)n2CCO)c1
IC50 (GRK2 [1]; [4]): < 3.6 nM
IC50 (GRK2 [2]; [5]): 1.95 nM
IC50 [3]: 90 nM

SMILES: C#Cc1cccc(OS(=O)(=O)F)c1CNC(=O)c1cccc(NCc2nnc(-c3ccncc3)[nH]2)c1
IC50 (GRK2 [1]): 4.2 nM
IC50 (GRK2 [2]): 8.94 nM
IC50 [3]: 1550 nM

SMILES: C#COc1cccc(OS(=O)(=O)F)c1CNC(=O)c1cccc(NCc2nnc(-c3ccncc3)[nH]2)c1
IC50 (GRK2 [1]; [4]): 7.7 nM
IC50 (GRK2 [2]; [5]): 15.5 nM
IC50 [3]: 13300 nM

SMILES: C#Cc1ccc(OS(=O)(=O)F)c(CNC(=O)c2cccc(NCc3nnc(-c4ccncc4)[nH]3)c2)c1
IC50 (GRK2 [1]; [4]): 13 nM
IC50 [3]: > 7500 nM

SMILES: Cn1c(CNc2cccc(C(=O)N[C@@H]3CCOc4c(Br)cccc43)c2)nnc1-c1ccncn1
IC50 (GRK2 [1]; [4]): 13 nM
IC50 [3]: 1630 nM

SMILES: Cn1c(CNc2cccc(C(=O)N[C@H]3CCOc4c(Br)cccc43)c2)nnc1-c1ccncn1
IC50 (GRK2 [1]; [4]): 3.6 nM
IC50 [3]: > 30000 nM

SMILES: Cc1ccc2c(c1)[C@H](NC(=O)c1cccc(NCc3nnc(-c4ccncn4)n3C)c1)CCO2
IC50 (GRK2 [1]; [4]): 4.6 nM
IC50 [3]: 196 nM

SMILES: Cc1ccc2c(c1)[C@@H](NC(=O)c1cccc(NCc3nnc(-c4ccncn4)n3C)c1)CCO2
IC50 (GRK2 [1]; [4]): 210 nM
IC50 [3]: > 30000 nM

SMILES: Cn1c(CNc2cccc(C(=O)N[C@@H]3CCOc4cc(Br)ccc43)c2)nnc1-c1ccncn1
IC50 (GRK2 [1]; [4]): 7 nM
IC50 [3]: > 30000 nM

SMILES: Cn1c(CNc2cccc(C(=O)N[C@H]3CCOc4cc(Br)ccc43)c2)nnc1-c1ccncn1
IC50 (GRK2 [1]; [4]): 11 nM
IC50 [3]: > 30000 nM

SMILES: Cn1c(CNc2cccc(C(=O)N[C@@H]3CCOc4cc(Cl)ccc43)c2)nnc1-c1ccncn1
IC50 (GRK2 [1]; [4]): 8.4 nM
IC50 [3]: 240 nM

SMILES: Cn1c(CNc2cccc(C(=O)N[C@@H]3CCOc4c(Cl)cccc43)c2)nnc1-c1ccncn1
IC50 (GRK2 [1]; [6]): 3.6 nM
IC50 (GRK2 [2]; [7]): 8.2 nM
IC50 [3]: > 470 nM

SMILES: Cn1c(CNc2cccc(C(=O)N[C@H]3CCOc4c(Cl)cccc43)c2)nnc1-c1ccncn1
IC50 (GRK2 [1]; [6]): 13.2 nM
IC50 (GRK2 [2]; [7]): 33.6 nM
IC50 [3]: > 1010 nM

SMILES: Cn1c(CNc2cccc(C(=O)N[C@H](C#N)c3ccc(F)cc3F)c2)nnc1-c1ccncn1
IC50 (GRK2 [1]; [6]): 4.9 nM
IC50 [3]: 122 nM

SMILES: Cn1c(CNc2cccc(C(=O)N[C@H](C#N)c3ccccc3C(F)(F)F)c2)nnc1-c1ccncn1
IC50 (GRK2 [1]; [6]): 3.5 nM
IC50 [3]: 54.4 nM

SMILES: [2H]C([2H])(Nc1cccc(C(=O)N[C@H]2CCOc3ccccc32)c1)c1nnc(-c2ccccn2)n1C
IC50 (GRK2 [1]; [6]): 8.3 nM
IC50 [3]: 2650 nM
